Experimental data published in patent US10729655B2, “Orally disintegrating tablets” (AstraZeneca AB, priority 2016, dated 2020).

Legend:
[1] = Relative bioavailability study (clinical study A), plasma pharmacokinetics of ticagrelor and AR-C124910XX; assay type: in vivo, healthy male and female subjects
Method: A relative bioavailability study (hereafter referred to as clinical study A) compared the orodispersible tablet of Example 7, administered with water (after oral dispersion) and without water, to a film-coated tablet containing 90 mg of ticagrelor. In clinical study A the orodispersible tablet was also suspended in water and administered through a nasogastric tube and compared to the film-coated tablet.
This study was an open-label, randomised, four-period, four-treatment, crossover study in healthy male and female of non-childbearing potential subjects, performed at a single study centre. The study was comprised of: • A screening period of maximum 21 days; • Four treatment periods during which subjects were resident prior to the evening meal the night before dosing with ticagrelor (Day −1) until at least 48 hours after dosing; discharged on the morning of Day 3; and • A final visit within 5 to 10 days after the last administration of ticagrelor.
Subjects received single doses of ticagrelor in 4 different ways under fasted conditions. Following an overnight fast of at least 10 hours, each subject received a single dose of each treatment on 4 occasions, respectively.
The PK parameters were assessed for ticagrelor (parent) and its active metabolite AR-C124910XX based on plasma concentrations.
Pharmacokinetic parameters were summarised for each treatment using descriptive statistics. Where possible, the following descriptive statistics were presented: n, geometric mean, geometric CV, arithmetic mean, arithmetic standard deviation, median, minimum and maximum. For tmax, only n, median, minimum and maximum were presented.
Bioavailability comparison of treatments A, B and C (test product) and D (reference product) were assessed on the ratio of log-transformed Cmax, AUC0-t, and AUC of both ticagrelor and AR-C124910XX using a 2-sided 90% confidence interval (CI) approach based on an analysis of variance (ANOVA) model including fixed effects for treatment, sequence, period and subject within sequence.
All PK parameters were log-transformed prior to analysis. The estimated treatment differences and the 90% CIs on the log scale were back transformed to obtain the geometric mean ratios for each pair of treatments.

[2] = Mercury intrusion porosimetry (pore volume, pore size distribution); assay type: physicochemical
Method: The pore volume and the pore size distribution were determined using mercury intrusion porosimetry (Micromeritics AutoPore III 9410). The determination was performed within the pore diameter interval 115 μm≥ϕ≥0.0030 μm (30 Å). The surface tension and the contact angle of mercury are set to 485 mN/m and 130°, respectively. Blank correction has been used to compensate for compaction of parts of the penetrometer system at high pressures. The test materials used were: ticagrelor granules (“3606”), final tablet blend (“3606 FB”); F-melt type C granules (“F-melt”); Ticagrelor particles from supplier 1 (“AZ”); Ticagrelor particles from supplier 2 (“DSM”); Ticagrelor particles from supplier 3 (“Omnichem”).
One of the penetrometers used for analysis of the granules was used for the reference test. The result gave a cumulative pore volume of 0.55 cm^3/g and a median pore diameter (based on volume) of 73 Å. The reference values are 0.56±0.02 cm^3/g and 75±5 Å, respectively.

[3] = Focused Beam Reflectance Measurement (FBRM) of granules in dissolution bath; assay type: physicochemical; conditions: granules stored at 40° C. and 75% RH for one month
Method: Focused Beam Reflectance Measurement (FBRM) analyses were conducted in dissolution studies. The FBRM technique involves the insertion of a probe directly into a process stream, at an angle, to ensure particles can flow easily across the probe window where the measurement takes place. A laser beam is launched down the probe tube through a set of optics and focused to a tight beam spot at the sapphire window. The optics rotate at a fixed speed (typically 2 m/s) resulting in the beam spot rapidly scanning across particles as they flow past the window. As the focused beam scans across the particle system, individual particles or particle structures will backscatter the laser light to the detector. These distinct pulses of backscattered light are detected, counted, and the duration of each pulse is multiplied by the scan speed to calculate the distance across each particle. This distance is defined as the chord length, a fundamental measurement of the particle related to the particle size, and a precise and highly sensitive chord length distribution can be reported in real time, thus tracking how particle size and count change over time. […]
The integration time was set to 5 seconds. […] From that dataset kinetic curves were calculated showing different size fractions and the fraction 40-100 μm was the fraction selected for comparison. […]

[4] = Powder flow indices (Carr's index, Hausner ratio); assay type: physicochemical; conditions: ticagrelor powders
Source text: Ticagrelor powders are characterised by poor flowability, for example as indicated by a large Hausner ratio (tap density/bulk density ˜1.8-2.0).

[5] = plasma, single 90 mg ticagrelor dose, fasted, range across treatments
[6] = pores <8, post-storage 1 month at 40° C./75% RH
[7] = pores >8, post-storage 1 month at 40° C./75% RH

| Compound | median tmax ([1]; plasma, single 90 mg ticagrelor dose, fasted, across OD (with water, without water, NG tube) and IR tablets) [h] | terminal mean t1/2λz [1, 5] [h] | Plasma metabolite AUC as % of plasma ticagrelor AUC ([1]; range across treatments) | Plasma metabolite Cmax as % of plasma ticagrelor Cmax ([1]; range across treatments) | Median pore diameter (vol) [2, 6] [μm] | Pore area [2, 6] [m^2/g] | Pore volume [2, 6] [cm^3/g] | Median pore diameter (vol) ([2]; pores <8, pre-storage) [μm] | Pore area ([2]; pores <8, pre-storage) [m^2/g] | Pore volume ([2]; pores <8, pre-storage) [cm^3/g] | Median pore diameter (vol) [2, 7] [μm] | Pore area [2, 7] [m^2/g] | Pore volume [2, 7] [cm^3/g] | Median pore diameter (vol) ([2]; pores >8, pre-storage) [μm] | Pore area ([2]; pores >8, pre-storage) [m^2/g] | Pore volume ([2]; pores >8, pre-storage) [cm^3/g] | Particle dissolution by FBRM after storage compared with non-stored granules [3] | Hausner ratio (tap density/bulk density) [4] | Tmax ([1]; both sexes, human, oral, plasma, single 90 mg ticagrelor dose, fasted, across OD (with water, without water, NG tube) and IR tablets, read-out: median tmax) [h] |
| --- | --- | --- | --- | --- | --- | --- | --- | --- | --- | --- | --- | --- | --- | --- | --- | --- | --- | --- | --- |
| CCCSc1nc(N[C@@H]2C[C@H]2c2ccc(F)c(F)c2)c2nnn([C@@H]3C[C@H](OCCO)[C@@H](O)[C@H]3O)c2n1 [DSM] |  |  |  |  | 1.5 | 12 | 0.29 | 1.2 | 13 | 0.28 | 20 | 0.1 | 0.64 | 19 | 0.1 | 0.59 |  |  |  |
| CCCSc1nc(N[C@@H]2C[C@H]2c2ccc(F)c(F)c2)c2nnn([C@@H]3C[C@H](OCCO)[C@@H](O)[C@H]3O)c2n1 [AZ] |  |  |  |  | 1.1 | 14 | 0.23 | 0.9 | 14 | 0.23 | 27 | 0.1 | 0.69 | 24 | 0.1 | 0.62 | slower particle dissolution |  |  |
| CCCSc1nc(N[C@@H]2C[C@H]2c2ccc(F)c(F)c2)c2nnn([C@@H]3C[C@H](OCCO)[C@@H](O)[C@H]3O)c2n1 [ticagrelor, (1S,2S,3R,5S)-3-[7-{[(1R,2S)-2-(3,4-difluorophenyl)cyclopropyl]amino}-5-(propylthio)-3H[1,2,3]-triazolo[4,5-d]pyrimidin-3-yl]-5-(2-hydroxyethoxy)cyclopentane-1,2-diol] |  | 7.99 to 8.21 |  |  |  |  |  |  |  |  |  |  |  |  |  |  |  | 1.8-2.0 | ~2 |

The remaining lines, values ahead:

| median tmax ([1]; plasma, single 90 mg ticagrelor dose, fasted, across OD (with water, without water, NG tube) and IR tablets) [h] | terminal mean t1/2λz [1, 5] [h] | Plasma metabolite AUC as % of plasma ticagrelor AUC ([1]; range across treatments) | Plasma metabolite Cmax as % of plasma ticagrelor Cmax ([1]; range across treatments) | Median pore diameter (vol) [2, 6] [μm] | Pore area [2, 6] [m^2/g] | Pore volume [2, 6] [cm^3/g] | Median pore diameter (vol) ([2]; pores <8, pre-storage) [μm] | Pore area ([2]; pores <8, pre-storage) [m^2/g] | Pore volume ([2]; pores <8, pre-storage) [cm^3/g] | Median pore diameter (vol) [2, 7] [μm] | Pore area [2, 7] [m^2/g] | Pore volume [2, 7] [cm^3/g] | Median pore diameter (vol) ([2]; pores >8, pre-storage) [μm] | Pore area ([2]; pores >8, pre-storage) [m^2/g] | Pore volume ([2]; pores >8, pre-storage) [cm^3/g] | Particle dissolution by FBRM after storage compared with non-stored granules [3] | Hausner ratio (tap density/bulk density) [4] | Tmax ([1]; both sexes, human, oral, plasma, single 90 mg ticagrelor dose, fasted, across OD (with water, without water, NG tube) and IR tablets, read-out: median tmax) [h] | Compound |
| --- | --- | --- | --- | --- | --- | --- | --- | --- | --- | --- | --- | --- | --- | --- | --- | --- | --- | --- | --- |
| 2 to 3 | 9.35 to 9.48 | 38.2-40.5% | 27.1-30.0% |  |  |  |  |  |  |  |  |  |  |  |  |  |  |  | CCCSc1nc(N[C@@H]2C[C@H]2c2ccc(F)c(F)c2)c2nnn([C@@H]3C[C@H](O)[C@@H](O)[C@H]3O)c2n1 [AR-C124910XX] |
|  |  |  |  | 0.5 | 9 | 0.18 | 0.5 | 12 | 0.28 | 36 | <0.1 | 0.61 | 35 | <0.1 | 0.53 |  |  |  | CCCSc1nc(N[C@@H]2C[C@H]2c2ccc(F)c(F)c2)c2nnn([C@@H]3C[C@H](OCCO)[C@@H](O)[C@H]3O)c2n1 [Omnichem] |
